Values of other authors in patent publication US20070105758A1 (priority 2005, published 2007).

Conditions: oral route in sensitive individuals

With `NCCc1c[nH]cn1` [histamine] as the molecule, how does the “histamine concentration known to be biologically active” value read?
Its value is > 5 nM.
